Experimental data from patent US20160130257A1, “Macrocyclic proteasome inhibitors” (BROWN UNIVERSITY, priority 2013, published 2016).
pIC50: −log10 of the molar value. Read-outs that look alike come from different tables or passages of the source.

What was measured:
[1] = tested on: non-heme chloroperoxidase SCO0456 gene transcription; test: Peroxidase gene (SCO0456) transcription assay of proteasome inhibition in S. coelicolor; assay type: cell-based, Streptomyces coelicolor; conditions: for transcription of the proteasome-dependent peroxidase gene: S. coelicolor wild-type, RT-PCR / reporter
mycobacterial proteasome = mycobacterial proteasome (Mycobacterium tuberculosis, UniProt P9WHT9); conditions: cited from earlier work
[2] = target: Mycobacterium tuberculosis 20S peptidase (mtb 20S) (Mycobacterium tuberculosis, UniProt P9WHT9)
[3] = tested on: 60 different human tumor cell lines; assay type: cell-based
Description: The In Vitro Cell Line Screening Project (IVCLSP) is a dedicated service providing direct support to the DTP anticancer drug discovery program. The screen utilizes 60 different human tumor cell lines, representing leukemia, melanoma and cancers of the lung, colon, brain, ovary, breast, prostate, and kidney. IVCLSP is unique because the complexity of a 60 cell line dose response produced by a given compound results in a biological response pattern, which can be utilized in pattern recognition algorithms. Using the pattern recognition algorithms, it is possible to assign a putative mechanism of action to a test compound, or to determine that the response pattern is unique and not similar to that of any of the standard prototype compounds included in the NCI database. The methodology of the in vitro cancer screen is available from the NIH.

Sequence of Mycobacterium tuberculosis 20S peptidase (mtb 20S) (P9WHT9 58-291): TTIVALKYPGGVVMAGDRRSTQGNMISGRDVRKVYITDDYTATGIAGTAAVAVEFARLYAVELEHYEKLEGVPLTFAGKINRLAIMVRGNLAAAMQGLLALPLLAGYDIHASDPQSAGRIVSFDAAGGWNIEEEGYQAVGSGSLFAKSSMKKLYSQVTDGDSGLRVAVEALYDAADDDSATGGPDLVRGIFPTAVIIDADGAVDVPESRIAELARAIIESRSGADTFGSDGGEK
Sequence of Mycobacterium tuberculosis 20S peptidase (mtb 20S) (P9WHU1 whole entry partner): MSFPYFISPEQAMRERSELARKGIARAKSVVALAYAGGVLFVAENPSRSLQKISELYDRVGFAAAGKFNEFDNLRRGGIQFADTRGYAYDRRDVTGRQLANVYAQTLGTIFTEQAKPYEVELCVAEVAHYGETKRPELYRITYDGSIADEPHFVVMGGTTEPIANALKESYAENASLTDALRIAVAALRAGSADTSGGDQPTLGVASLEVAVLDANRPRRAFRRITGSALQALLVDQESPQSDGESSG
Sequence of mycobacterial proteasome (P9WHT9 58-291): as the sequence (P9WHT9 58-291) above
Sequence of mycobacterial proteasome (P9WHU1 whole entry partner): as the sequence (P9WHU1 whole entry partner) above

| Compound | transcription of the proteasome-dependent peroxidase gene [1] | inhibition of proteasomes (in words) (mycobacterial proteasome) | pIC50 [2] | selective inhibition of M. tuberculosis proteasome compared to human proteasome (in words, from ratio of IC50 values) [2] | selectivity for the mycobacterial proteasome compared to the human enzyme [2] | selectivity of M. tuberculosis proteasome inhibition compared to Syringolin B [2] | other results |
| --- | --- | --- | --- | --- | --- | --- | --- |
| CC(C)C1/C=C\C(=O)NCCCCC(NC(=O)C(NC(=O)NC(C(=O)O)C(C)C)C(C)C)C(=O)N1 (stereo not drawn) [Syringolin B] |  |  |  |  |  |  | SCO0456 expression (gel electrophoresis of RNA samples) ([1]; wild-type S. coelicolor, 150 μg/ml, 5 hours, 30° C.): up regulated |
| CC(C)C[C@H](NC(=O)[C@H](Cc1ccccc1)NC(=O)c1cnccn1)B(O)O [bortezomib, Bortezomib] | significantly up-regulated | inhibit the mycobacterial proteasomes |  |  |  |  | inhibition of proteasomes (in words) (mycobacterial proteasome; listed as Bortezomib): inhibits both bacterial and human proteasomes |
| CCCCCCCCC[C@@H](O)CC(=O)N[C@@H](CC(N)=O)C(=O)N[C@@H](CCC(N)=O)C(=O)N[C@H](C=O)CC(C)C [Fellutamide B] |  | inhibit the mycobacterial proteasomes |  |  |  |  |  |
| COC(=O)C(NC(=O)NCC(=O)NC1CCCCNC(=O)C=CC(Cc2c[nH]c3ccccc23)NC1=O)C(C)C (stereo not drawn) [Compound P] | induced transcription of the peroxidase reporter gene |  | 9.94 | selectively inhibits | 45.6 fold | more than 6,500 times | selectivity for M. tuberculosis proteasome than human proteasome [2]: 46 times; toxicity to human cells [3]: not toxic to human cells; killing of cancer cells ([3]; 60 cancer cell lines): does not kill cancer cells; inhibition of cancer cell proteasomes ([3]; inferred from 60 cell line screen): does not inhibit cancer cell proteasomes |
| COC(=O)C(NC(=O)N1CCCC1C(=O)NC1CCCCNC(=O)C=CC(Cc2c[nH]c3ccccc23)NC1=O)C(C)C (stereo not drawn) [Compound O] |  |  | 5.57 | selectively inhibits | 13.4 fold | more than 1,900 times |  |
